Values of other authors in patent publication US20250000872A1, “FORMULATIONS AND DOSING REGIMENS FOR RIP1 KINASE INHIBITORS FOR TREATING AUTOIMMUNE AND INFLAMMATORY DISEASES” (Eli Lilly and Company, priority 2023, published 2025).

Columns and labels:
[1] = modified release formulations, fasted state; not maintained with standard or high-fat meal; cited from earlier work
UC = settings: 60 mg orally t.i.d. for up to 84 days; cited from earlier work
[2] = tested on: patients with moderate to severe RA; settings: 60 mg orally b.i.d. and t.i.d. for up to 84 days; cited from earlier work
[3] = tested on: patients with mild-to-moderate active plaque-type psoriasis; settings: 60 mg orally b.i.d. and 60 mg orally t.i.d.; cited from earlier work

CN1C(=O)[C@@H](NC(=O)c2nnc(Cc3ccccc3)[nH]2)COc2ccccc21 [GSK2982772, 5-Benzyl-N-[(3S)-5-methyl-4-oxo-2,3-dihydro-1,5-benzoxazepin-3-yl]-1H-1,2,4-triazole-3-carboxamide]
GSK2982772 released over 12 h [1]: 80% | histological disease activity or clinical efficacy compared with placebo (UC): does not lead to differences | difference over placebo in disease activity, radiological progression, or inflammatory markers [2]: No significant difference | clinical improvement over placebo [3]: limited
